pIC50: −log10 of the molar value. “And” between values parts separate entries of the source, which are not always exact repeats. Equal values may be shown once. One block for each compound: values may come before it.
Tests used:
Assay in all cases: Enzyme Assay
Conditions in all cases: pH 8
[1] = target: Chymotrypsin-like elastase family member 1 (Pig, UniProt P00772)
Method: (§1) Data scanning time was set to the 1st and 61st minute after the reaction start. Rutin, esculin, phloridzin and their esters were initially solubilized at a concentration of 10 mM in dimethyl sulphoxide (DMSO) and subsequently incorporated in the reaction mixture to final concentrations in the range of 1-50 μM. Samples were run in triplicate in 96-well plates by MRX microplate reader. Each experiment was performed in triplicate.

[2] = target: Prothrombin (Bos taurus, UniProt P00735)
Method: as §1

[3] = target: T1, Serine protease 1 (Bos taurus, UniProt P00760)
T1 sequence (P00760 whole entry): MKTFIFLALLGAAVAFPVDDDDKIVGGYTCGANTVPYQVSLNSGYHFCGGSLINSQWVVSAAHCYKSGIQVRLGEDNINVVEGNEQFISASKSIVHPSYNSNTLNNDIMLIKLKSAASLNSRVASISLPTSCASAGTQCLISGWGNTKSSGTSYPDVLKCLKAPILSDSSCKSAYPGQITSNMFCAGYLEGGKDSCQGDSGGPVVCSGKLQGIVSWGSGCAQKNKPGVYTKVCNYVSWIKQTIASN
Method: as §1

[4] = target: Urokinase-type plasminogen activator (Homo sapiens, UniProt P00749)
Method: as §1

Sequence of Chymotrypsin-like elastase family member 1 (P00772 whole entry): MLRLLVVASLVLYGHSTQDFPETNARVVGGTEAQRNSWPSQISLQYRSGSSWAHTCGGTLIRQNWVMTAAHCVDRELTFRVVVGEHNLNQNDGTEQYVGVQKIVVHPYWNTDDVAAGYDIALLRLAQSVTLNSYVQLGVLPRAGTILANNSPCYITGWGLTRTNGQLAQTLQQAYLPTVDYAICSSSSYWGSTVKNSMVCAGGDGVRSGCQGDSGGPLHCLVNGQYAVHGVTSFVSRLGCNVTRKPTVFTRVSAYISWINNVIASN

Compound: CCCCCCCC(=O)OC1C(C)OC(OCC2OC(Oc3c(-c4ccc(O)c(O)c4)oc4cc(O)cc(O)c4c3=O)C(O)C(O)C2O)C(O)C1O (stereo not given) [Rutin caprylate]
pIC50 [1]: < 3.30 | pIC50 [2]: 4.60 | pIC50 [3]: < 3.30 | pIC50 [4]: 4.49

Compound: N=C(N)Nc1ccc(C(=O)O)cc1 [4-Guanidinobenzoate]
pIC50 [1]: 3.30 | pIC50 [2]: 3.40 | pIC50 [3]: 3.35 | pIC50 [4]: 4.70

Compound: O=C(CCc1ccc(O)cc1)c1c(O)cc(O)cc1OC1OC(CO)C(O)C(O)C1O (stereo not given) [Phloridzin]
pIC50 [1]: 4.00 | pIC50 [2]: 3.49 | pIC50 [3]: 4.05 | pIC50 [4]: 4.10

Compound: CCCCCCCCCCCCCC(=O)OCC1OC(Oc2cc(O)cc(O)c2C(=O)CCc2ccc(O)cc2)C(O)C(O)C1O (stereo not given) [Phloridzin myristate]
pIC50 [1]: < 3.30 | pIC50 [2]: 4.12 | pIC50 [3]: 4.19 | pIC50 [4]: 4.48

Compound: CCCCCCCCCCCC(=O)OC1C(C)OC(OCC2OC(Oc3c(-c4ccc(O)c(O)c4)oc4cc(O)cc(O)c4c3=O)C(O)C(O)C2O)C(O)C1O (stereo not given) [Rutin laurate]
pIC50 [1]: < 3.30 | pIC50 [2]: 4.85 | pIC50 [3]: 4.05 | pIC50 [4]: 4.30

Compound: O=c1ccc2cc(OC3OC(CO)C(O)C(O)C3O)c(O)cc2o1 (stereo not given) [Esculin]
pIC50 [1]: 4.00 | pIC50 [2]: 3.60 | pIC50 [3]: 3.82 | pIC50 [4]: 4.60

Compound: CCCCCCCCCCCCCCCCCC(=O)OCC1OC(Oc2cc(O)cc(O)c2C(=O)CCc2ccc(O)cc2)C(O)C(O)C1O (stereo not given) [Phloridzin stearate]
pIC50 [1]: < 3.30 | pIC50 [2]: 4.19 | pIC50 [3]: 3.67 | pIC50 [4]: 4.89

Compound: CC1OC(OCC2OC(Oc3c(-c4ccc(O)c(O)c4)oc4cc(O)cc(O)c4c3=O)C(O)C(O)C2O)C(O)C(O)C1O (stereo not given) [Rutin]
pIC50 [1]: 4.00 | pIC50 [2]: 4.60 | pIC50 [3]: 4.40 | pIC50 [4]: 5.22

pIC50 [1]: < 3.30 | pIC50 [2]: 5.05 | pIC50 [3]: 4.22 | pIC50 [4]: 4.60
Compound: CCCCCCCC/C=C\CCCCCCCC(=O)OC1C(C)OC(OCC2OC(Oc3c(-c4ccc(O)c(O)c4)oc4cc(O)cc(O)c4c3=O)C(O)C(O)C2O)C(O)C1O (stereo not given) [Rutin oleate]

Compound: CCCCCCCCCCCCCC(=O)OC1C(C)OC(OCC2OC(Oc3c(-c4ccc(O)c(O)c4)oc4cc(O)cc(O)c4c3=O)C(O)C(O)C2O)C(O)C1O (stereo not given) [Rutin myristate]
pIC50 [1]: < 3.30 | pIC50 [2]: 5.00 | pIC50 [3]: 3.89 | pIC50 [4]: 4.82

Compound: CCCCCCCCCCCCCC(=O)OCC1OC(Oc2cc3ccc(=O)oc3cc2O)C(O)C(O)C1O (stereo not given) [Esculin myristate]
pIC50 [1]: 4.60 | pIC50 [2]: 4.27 | pIC50 [3]: 3.92 | pIC50 [4]: 4.00

Compound: CCCCCC(=O)OC1C(C)OC(OCC2OC(Oc3c(-c4ccc(O)c(O)c4)oc4cc(O)cc(O)c4c3=O)C(O)C(O)C2O)C(O)C1O (stereo not given) [Rutin caproate]
pIC50 [1]: < 3.30 | pIC50 [2]: 4.49 | pIC50 [3]: < 3.30 | pIC50 [4]: 4.85 and 4.70

pIC50 [1]: < 3.30 | pIC50 [2]: 5.52 | pIC50 [3]: 4.40 | pIC50 [4]: 4.82
Compound: CCCCCCCCCCCCCCCC(=O)OC1C(C)OC(OCC2OC(Oc3c(-c4ccc(O)c(O)c4)oc4cc(O)cc(O)c4c3=O)C(O)C(O)C2O)C(O)C1O (stereo not given) [Rutin palmitate]

Compound: CCCC(=O)OC1C(C)OC(OCC2OC(Oc3c(-c4ccc(O)c(O)c4)oc4cc(O)cc(O)c4c3=O)C(O)C(O)C2O)C(O)C1O (stereo not given) [Rutin butyrate]
pIC50 [1]: < 3.30 | pIC50 [2]: 4.66 | pIC50 [3]: < 3.30 | pIC50 [4]: 5.10

pIC50 [1]: < 3.30 | pIC50 [2]: 5.15 | pIC50 [3]: 4.30 | pIC50 [4]: 4.70
Compound: CC/C=C\C/C=C\C/C=C\CCCCCCCC(=O)OC1C(C)OC(OCC2OC(Oc3c(-c4ccc(O)c(O)c4)oc4cc(O)cc(O)c4c3=O)C(O)C(O)C2O)C(O)C1O (stereo not given) [Rutin linolenate]

Compound: O=c1c(O)c(-c2ccc(O)c(O)c2)oc2cc(O)cc(O)c12 [2-(3,4-dihydroxyphenyl)-3,5,7-trihydroxy-chromone;hydrate]
pIC50 [4]: 4.70

Compound: CCCCCCCCCCCC(=O)OCC1OC(Oc2cc(O)cc(O)c2C(=O)CCc2ccc(O)cc2)C(O)C(O)C1O (stereo not given) [Phloridzin laurate]
pIC50 [1]: < 3.30 | pIC50 [2]: 4.15 | pIC50 [3]: 4.26 | pIC50 [4]: 5.05

pIC50 [1]: < 3.30 | pIC50 [2]: 5.10 | pIC50 [3]: 4.40 | pIC50 [4]: 4.82
Compound: CCCCCCCCCCCCCCCCCC(=O)OC1C(C)OC(OCC2OC(Oc3c(-c4ccc(O)c(O)c4)oc4cc(O)cc(O)c4c3=O)C(O)C(O)C2O)C(O)C1O (stereo not given) [Rutin stearate]

Compound: CCCCCCCCCCCCCCCC(=O)OCC1OC(Oc2cc3ccc(=O)oc3cc2O)C(O)C(O)C1O (stereo not given) [Esculin palmitate]
pIC50 [1]: 4.52 | pIC50 [2]: 4.27 | pIC50 [3]: 3.68 | pIC50 [4]: 4.00

Compound: CCCCCCCCCCCCCCCCCC(=O)OCC1OC(Oc2cc3ccc(=O)oc3cc2O)C(O)C(O)C1O (stereo not given) [Esculin stearate]
pIC50 [1]: 4.22 | pIC50 [2]: 4.28 | pIC50 [3]: 4.30 | pIC50 [4]: 4.05

Compound: CCCCCCCCCCCCCCCC(=O)OCC1OC(Oc2cc(O)cc(O)c2C(=O)CCc2ccc(O)cc2)C(O)C(O)C1O (stereo not given) [Phloridzin palmitate]
pIC50 [1]: < 3.30 | pIC50 [2]: 4.12 | pIC50 [3]: 4.22 | pIC50 [4]: 4.74

Compound: CCCCCCCCCCCC(=O)OCC1OC(Oc2cc3ccc(=O)oc3cc2O)C(O)C(O)C1O (stereo not given) [Esculin laurate]
pIC50 [1]: 4.70 | pIC50 [2]: 4.22 | pIC50 [3]: 3.46 | pIC50 [4]: 4.00

Source: BindingDB's records for doi:10.3109/14756366.2010.616860 (Slovak University of Technology, 2012)
